ChEMBL document CHEMBL1128213, “1-Phenyl-3-(aminomethyl)pyrroles as potential antipsychotic agents. Synthesis and dopamine receptor binding” (J Med Chem, 1995)

Key:
D(2) dopamine receptor = D(2) dopamine receptor (Rattus norvegicus, UniProt P61169); assay: Binding affinity towards Dopamine receptor D2 of rat using [3H]spiperone
D(4) dopamine receptor = target: T1, D(4) dopamine receptor (Homo sapiens, UniProt P21917)
T1 sequence (P21917 whole entry): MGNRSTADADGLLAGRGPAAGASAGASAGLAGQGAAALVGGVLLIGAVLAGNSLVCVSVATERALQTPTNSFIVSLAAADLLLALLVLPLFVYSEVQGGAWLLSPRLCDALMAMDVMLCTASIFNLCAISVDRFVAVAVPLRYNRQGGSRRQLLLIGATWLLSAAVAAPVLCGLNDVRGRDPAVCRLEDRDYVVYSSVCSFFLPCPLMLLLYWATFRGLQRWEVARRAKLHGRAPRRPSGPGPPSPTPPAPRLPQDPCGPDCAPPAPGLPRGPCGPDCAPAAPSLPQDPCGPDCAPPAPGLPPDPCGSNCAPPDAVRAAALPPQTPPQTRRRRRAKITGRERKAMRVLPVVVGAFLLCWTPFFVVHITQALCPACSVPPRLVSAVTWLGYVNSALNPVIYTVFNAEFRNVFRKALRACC
Description: Displacement of [3H]-YM 09151 from human Dopamine receptor D4

D(3) dopamine receptor = D(3) dopamine receptor (Chlorocebus aethiops, UniProt P52703)
D(3) dopamine receptor, sequence (P52703 whole entry): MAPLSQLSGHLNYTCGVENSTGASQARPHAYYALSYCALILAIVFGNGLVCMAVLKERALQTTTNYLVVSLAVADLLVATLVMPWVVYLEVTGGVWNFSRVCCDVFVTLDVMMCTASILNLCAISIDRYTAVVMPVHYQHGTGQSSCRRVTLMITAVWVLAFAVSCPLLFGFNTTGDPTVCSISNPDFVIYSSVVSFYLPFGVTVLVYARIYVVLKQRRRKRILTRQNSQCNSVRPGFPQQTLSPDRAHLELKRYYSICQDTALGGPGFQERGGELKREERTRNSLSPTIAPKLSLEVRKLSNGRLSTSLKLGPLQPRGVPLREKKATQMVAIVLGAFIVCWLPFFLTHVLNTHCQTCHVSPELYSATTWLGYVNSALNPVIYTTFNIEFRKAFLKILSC
Description: Displacement of [3H]-YM 09151 from african monkey Dopamine receptor D3

D(2) dopamine receptor, sequence (P61169 whole entry): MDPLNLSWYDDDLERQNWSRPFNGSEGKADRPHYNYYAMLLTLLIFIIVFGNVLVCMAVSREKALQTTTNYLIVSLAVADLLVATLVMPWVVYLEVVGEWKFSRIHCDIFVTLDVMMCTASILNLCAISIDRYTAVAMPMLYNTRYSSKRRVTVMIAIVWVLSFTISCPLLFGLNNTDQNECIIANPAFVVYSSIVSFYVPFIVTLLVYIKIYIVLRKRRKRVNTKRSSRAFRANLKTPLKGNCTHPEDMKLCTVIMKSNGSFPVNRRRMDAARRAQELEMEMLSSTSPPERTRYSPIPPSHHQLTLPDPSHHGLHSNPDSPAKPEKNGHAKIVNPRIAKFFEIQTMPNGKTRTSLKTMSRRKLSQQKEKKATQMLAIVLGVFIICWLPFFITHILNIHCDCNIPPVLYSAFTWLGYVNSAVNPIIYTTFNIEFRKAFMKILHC

**Q.** COc1ccccc1N1CCN(Cc2ccc(-c3ccccc3)n2C)CC1 was tested. Which Ki (D(2) dopamine receptor) did it give?
**A.** Its Ki is 0.8 nM.

**Q.** O=C1NCN(c2ccccc2)C12CCN(Cc1ccn(-c3ccccc3)c1)CC2 was tested. Which Ki (D(4) dopamine receptor) did it give?
**A.** The Ki was 201 nM.

**Q.** What about the Ki (D(3) dopamine receptor) of the same compound?
**A.** The Ki was 90 nM.

**Q.** For c1ccc(-n2ccc(CN3CCN(c4ccccn4)CC3)c2)cc1, which Ki (D(4) dopamine receptor) is on record?
**A.** The Ki was 1.6 nM.

**Q.** And the Ki (D(3) dopamine receptor)?
**A.** The Ki was 150 nM.

**Q.** Which results are given for c1ccc(N2CCN(Cc3ccn(-c4ccccc4)c3)CC2)cc1?
**A.** Ki (D(4) dopamine receptor): 4 nM; Ki (D(3) dopamine receptor): 49 nM

**Q.** How did the Ki (D(4) dopamine receptor) turn out when C1=C(c2ccccc2)CCN(Cc2ccn(-c3ccccc3)c2)C1 was run?
**A.** Its Ki is 4 nM.

**Q.** For O=c1[nH]c2ccccc2n1C1CCN(Cc2ccn(-c3ccccc3)c2)CC1, which Ki (D(4) dopamine receptor) is on record?
**A.** The Ki was 646 nM.

**Q.** What about the Ki (D(3) dopamine receptor) of the same compound?
**A.** Its Ki is 398 nM.

**Q.** What does the source list for c1ccc(C2CCN(Cc3ccn(-c4ccccc4)c3)CC2)cc1?
**A.** Ki (D(4) dopamine receptor): 9 nM; Ki (D(3) dopamine receptor): 61 nM

**Q.** OC1(c2cccc(C(F)(F)F)c2)CCN(Cc2ccn(-c3ccccc3)c2)CC1 was tested. Which Ki (D(4) dopamine receptor) did it give?
**A.** Its Ki is 492 nM.

**Q.** And the Ki (D(3) dopamine receptor)?
**A.** Its Ki is 420 nM.

**Q.** Which Ki (D(4) dopamine receptor) does the source give for OC1(c2ccc(Cl)cc2)CCN(Cc2ccn(-c3ccccc3)c2)CC1 here?
**A.** The Ki was 325 nM.

**Q.** And the Ki (D(3) dopamine receptor)?
**A.** Its Ki is 477 nM.

**Q.** With CN1CCN(C2=Nc3cc(Cl)ccc3Nc3ccccc32)CC1 [CLOZAPINE] as the compound, how does the Ki (D(3) dopamine receptor) read?
**A.** The Ki was 466 nM.

**Q.** How did the Ki (D(4) dopamine receptor) turn out when COc1ccccc1N1CCN(Cc2ccn(-c3ccccc3)c2)CC1 was run?
**A.** The Ki was 1.3 nM.
